Data set [1] in a line: Plasma protein binding in human at 1 uM incubated for 6 hrs by LC-MS/MS analysis. The following applies: read-out: PPB (converted). Type of data set: ADME, cell-free.
A short description of data set [2]: Plasma protein binding in rat at 1 uM incubated for 6 hrs by LC-MS/MS analysis. The note with it: read-out: PPB (converted). In kind it is ADME, cell-free.
Data set [3] is described as follows: Stability in dog liver microsomes at 0.2 mg/ml measured up to 60 mins in presence of NADPH by LC-MS/MS analysis. In kind it is ADME, Canis lupus familiaris, Microsome. The note with it: 1 h.
Data set [4] in a line: Stability in human liver microsomes at 0.2 mg/ml measured up to 60 mins in presence of NADPH by LC-MS/MS analysis. In kind it is ADME, Microsome. The following applies: 1 h.
Data set [5] can be described thus: Stability in rat liver microsomes at 0.2 mg/ml measured up to 60 mins in presence of NADPH by LC-MS/MS analysis. In kind it is ADME, Microsome. The note with it: 1 h.
Data set [6] is described as follows: Stability in mouse liver microsomes at 0.2 mg/ml measured up to 60 mins in presence of NADPH by LC-MS/MS analysis. In kind it is ADME, Microsome. The note with it: 1 h.
A short description of data set [7]: Stability in monkey liver microsomes at 0.2 mg/ml measured up to 60 mins in presence of NADPH by LC-MS/MS analysis. The note with it: rhesus monkey, 1 h. In kind it is ADME, Macaca mulatta, Microsome.
The nature of data set [8]: Stability in human plasma at 1 uM measured upto 120 mins by LC-MS/MS analysis. Type of data set: ADME, cell-free. The note with it: 2 h.
Data set [9] is described as follows: Stability in mouse plasma at 1 uM measured upto 120 mins by LC-MS/MS analysis. The note with it: 2 h. In kind it is ADME, cell-free.
A short description of data set [10]: Stability in rat plasma at 1 uM measured upto 120 mins by LC-MS/MS analysis. In kind it is ADME, cell-free. The note with it: 2 h.
A short description of data set [11]: Stability in dog plasma at 1 uM measured upto 120 mins by LC-MS/MS analysis. Type of data set: ADME, cell-free, Canis lupus familiaris. The note with it: 2 h.
Data set [12] in a line: Stability in monkey plasma at 1 uM measured upto 120 mins by LC-MS/MS analysis. The following applies: rhesus monkey, 2 h. Type of data set: ADME, cell-free, Macaca mulatta.

Each structure is given as a SMILES string.

As to `CC(=O)Nc1ccc(O)cc1` [ACETAMINOPHEN], the fraction unbound at 6 h, 1 µM was 0.741 in data set [1] and 0.526 in data set [2].
In the case of `Cc1ncc2n1-c1ccc(Cl)cc1C(c1ccccc1F)=NC2` [MIDAZOLAM], the Stability entry in data set [3], in [4], in data set [5], in data set [6] and in data set [7] was “Unstable” each time.
Regarding `CC(C)[N+](C)(CCOC(=O)C1c2ccccc2Oc2ccccc21)C(C)C` [PROPANTHELINE], the Stability result in data set [8], in data set [9], in data set [10], in data set [11] and in [12] was “Unstable” throughout.
